Assay results taken from ChEMBL document CHEMBL1201862, “PubChem BioAssay data set” (2004).
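Assay format: 96-well plates, 48-hour exposure. GI50 = concentration required for 50% inhibition of growth.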 Active and inactive are the calls of the source. Cut-off read from the data, not from the text of the source: active = GI50 up to about 1.1 µM and inactive = higher.

How the values were obtained:
Assay in all cases: NCI anticancer screen, dose series, 48 h
A549 = test system: A549
BT-549 = test system: BT-549
CAKI-1 = test system: CAKI-1
COLO 205 = test system: COLO 205
HCC 2998 = test system: HCC 2998
HCT-116 = test system: HCT-116
KM12 = test system: KM12
MDA-MB-231 = test system: MDA-MB-231
MDA-N = test system: MDA-N
MOLT-4 = test system: MOLT-4
NCI-H23 = test system: NCI-H23
NCI-H522 = test system: NCI-H522
OVCAR-3 = test system: OVCAR-3
OVCAR-4 = test system: OVCAR-4
SK-MEL-5 = test system: SK-MEL-5
SK-OV-3 = test system: SK-OV-3
SNB-19 = test system: SNB-19
U-251 = test system: U-251
UACC-62 = test system: UACC-62
Hs-578T = test system: Hs-578T

Row | SMILES | GI50 (A549) | GI50 (BT-549) | GI50 (CAKI-1) | GI50 (COLO 205) | GI50 (HCC 2998) | GI50 (HCT-116) | GI50 (KM12) | GI50 (MDA-MB-231) | GI50 (MDA-N) | GI50 (MOLT-4) | GI50 (NCI-H23) | GI50 (NCI-H522) | GI50 (OVCAR-3) | GI50 (OVCAR-4) | GI50 (SK-MEL-5) | GI50 (SK-OV-3) | GI50 (SNB-19) | GI50 (U-251) | GI50 (UACC-62) | GI50 (Hs-578T)
1 | COC(=O)/C=C\COCC1C2CCC(=O)C21 (stereo not drawn) | > 25 µM (inactive) | 11 µM (inactive) | 0.632 µM (active) | 14 µM (inactive) | > 25 µM (inactive) | 16.3 µM (inactive) | 17.9 µM (inactive) | > 25 µM (inactive) | > 25 µM (inactive) | 6.07 µM (inactive) | > 25 µM (inactive) | 3.86 µM (inactive) | 8.41 µM (inactive) | > 25 µM (inactive) | 22.9 µM (inactive) | > 25 µM (inactive) | > 25 µM (inactive) | > 25 µM (inactive) | 16.4 µM (inactive) | –
2 | Cc1ccc(S(=O)(=O)N/N=C2/C3C(CC2(C)C)C2(C)CCCC3(C)C2O)cc1 (stereo not drawn) | 20 µM (inactive) | 14.3 µM (inactive) | 39.3 µM (inactive) | 16 µM (inactive) | – | 18.7 µM (inactive) | 18.3 µM (inactive) | – | 20.1 µM (inactive) | 12.9 µM (inactive) | 22.8 µM (inactive) | 19.6 µM (inactive) | 34.4 µM (inactive) | 19.1 µM (inactive) | 15.5 µM (inactive) | 20.9 µM (inactive) | 29.4 µM (inactive) | 16.3 µM (inactive) | 14.8 µM (inactive) | 19 µM (inactive)
3 | Cc1cc2nnn(C3CCCO3)c2cc1C (stereo not drawn) | > 100 µM (inactive) | > 100 µM (inactive) | > 100 µM (inactive) | > 100 µM (inactive) | > 100 µM (inactive) | > 100 µM (inactive) | – | > 100 µM (inactive) | > 100 µM (inactive) | > 100 µM (inactive) | > 100 µM (inactive) | > 100 µM (inactive) | > 100 µM (inactive) | – | > 100 µM (inactive) | > 100 µM (inactive) | – | > 100 µM (inactive) | > 100 µM (inactive) | > 100 µM (inactive)
4 | CCSC1=N/C(=C\c2ccco2)C(Cl)=N1 | > 100 µM (inactive) | > 100 µM (inactive) | > 100 µM (inactive) | > 100 µM (inactive) | – | > 100 µM (inactive) | > 100 µM (inactive) | > 100 µM (inactive) | > 100 µM (inactive) | > 100 µM (inactive) | > 100 µM (inactive) | – | > 100 µM (inactive) | – | > 100 µM (inactive) | > 100 µM (inactive) | > 100 µM (inactive) | > 100 µM (inactive) | > 100 µM (inactive) | > 100 µM (inactive)
5 | CSC1=N/C(=C\c2c[nH]c3ccccc23)C(=O)N1 | 69.8 µM (inactive) | > 100 µM (inactive) | – | 63 µM (inactive) | 21.9 µM (inactive) | 70.3 µM (inactive) | – | 52.6 µM (inactive) | – | > 100 µM (inactive) | > 100 µM (inactive) | – | 85.3 µM (inactive) | 71.4 µM (inactive) | 39.4 µM (inactive) | > 100 µM (inactive) | > 100 µM (inactive) | 56.4 µM (inactive) | 92.9 µM (inactive) | 43.4 µM (inactive)
6 | CC1=C(C)SC(=C2Sc3[n-]c(=O)[nH]c(=O)c3S2)S1.CCCC[N+](CCCC)(CCCC)CCCC | > 100 µM (inactive) | > 100 µM (inactive) | > 100 µM (inactive) | > 100 µM (inactive) | > 100 µM (inactive) | > 100 µM (inactive) | 98.2 µM (inactive) | > 100 µM (inactive) | – | 95.1 µM (inactive) | > 100 µM (inactive) | 15.1 µM (inactive) | 46.1 µM (inactive) | > 100 µM (inactive) | 28.5 µM (inactive) | > 100 µM (inactive) | 73.1 µM (inactive) | > 100 µM (inactive) | 27.2 µM (inactive) | > 100 µM (inactive)
7 | O=C1Oc2ccccc2C(=O)/C1=C\NC(=S)c1ccncc1 | > 100 µM (inactive) | 31.6 µM (inactive) | 51.3 µM (inactive) | > 100 µM (inactive) | > 100 µM (inactive) | > 100 µM (inactive) | > 100 µM (inactive) | > 100 µM (inactive) | > 100 µM (inactive) | 95.1 µM (inactive) | > 100 µM (inactive) | – | 71.6 µM (inactive) | > 100 µM (inactive) | > 100 µM (inactive) | > 100 µM (inactive) | 96.8 µM (inactive) | > 100 µM (inactive) | > 100 µM (inactive) | –
8 | CCNC1CC(C(C)(C)NCC)CC=C1C (stereo not drawn) | > 100 µM (inactive) | > 100 µM (inactive) | – | > 100 µM (inactive) | > 100 µM (inactive) | > 100 µM (inactive) | > 100 µM (inactive) | > 100 µM (inactive) | > 100 µM (inactive) | > 100 µM (inactive) | > 100 µM (inactive) | > 100 µM (inactive) | > 100 µM (inactive) | > 100 µM (inactive) | > 100 µM (inactive) | > 100 µM (inactive) | > 100 µM (inactive) | > 100 µM (inactive) | > 100 µM (inactive) | –
9 | NS(=O)(=O)c1cc2c(cc1Cl)N=C(CCC(=O)O)NS2(=O)=O | > 100 µM (inactive) | > 100 µM (inactive) | > 100 µM (inactive) | > 100 µM (inactive) | – | > 100 µM (inactive) | > 100 µM (inactive) | > 100 µM (inactive) | > 100 µM (inactive) | – | > 100 µM (inactive) | > 100 µM (inactive) | > 100 µM (inactive) | > 100 µM (inactive) | > 100 µM (inactive) | > 100 µM (inactive) | > 100 µM (inactive) | > 100 µM (inactive) | > 100 µM (inactive) | > 100 µM (inactive)
10 | Cc1nn(C(=O)Cc2ccccc2)c2c1C(c1ccc(O)cc1O)SC(=N)N2 (stereo not drawn) | > 100 µM (inactive) | > 100 µM (inactive) | > 100 µM (inactive) | > 100 µM (inactive) | > 100 µM (inactive) | > 100 µM (inactive) | > 100 µM (inactive) | > 100 µM (inactive) | > 100 µM (inactive) | > 100 µM (inactive) | > 100 µM (inactive) | > 100 µM (inactive) | – | – | > 100 µM (inactive) | > 100 µM (inactive) | > 100 µM (inactive) | – | > 100 µM (inactive) | > 100 µM (inactive)
11 | O=c1oc(-c2ccc(O)c(O)c2)cc2cccc(O)c12 [THUNBERGINOL A] | 35.4 µM (inactive) | 15.6 µM (inactive) | 6.71 µM (inactive) | 10.5 µM (inactive) | 12.8 µM (inactive) | 10.3 µM (inactive) | 11.4 µM (inactive) | – | – | 3.42 µM (inactive) | 16.1 µM (inactive) | 15.4 µM (inactive) | 10.5 µM (inactive) | 20.1 µM (inactive) | 9.4 µM (inactive) | 29.4 µM (inactive) | 19.1 µM (inactive) | – | – | 21.2 µM (inactive)
